Values of other authors as cited in patent US20210121480A1, “STABLE PHARMACEUTICAL COMPOSITIONS CONTAINING ESTRADIOL AND PROGESTERONE FOR ORAL ADMINISTRATION” (SLAYBACK PHARMA LLC, priority 2019, published 2021).
≈ marks a conversion by molar mass, not a printed value.

Details: reported

CC(=O)[C@H]1CC[C@H]2[C@@H]3CCC4=CC(=O)CC[C@]4(C)[C@H]3CC[C@]12C [Progesterone]
aqueous solubility: 7 ± 0 µg/mL (≈ 22.3 µM)
